From patent US20230025537A1, “MIXTURE COMPRISING HYDROGENATED SOYBEAN OIL AND THYMOL” (DSM IP Assets B.V., priority 2019, published 2023)
≈ marks a conversion by molar mass, not a printed value. Read-outs that look alike come from different tables or passages of the source.

Legend:
[1] = test system: E. coli K88+; assay: MIC by two-fold broth dilution method; format: cell-based; details: Escherichia coli, 24 h, read-out: MIC values, Escheria coli K88^+
[2] = test system: S. choleraesuis; assay: MIC by two-fold broth dilution method; format: cell-based; details: Salmonella enterica, 24 h, read-out: MIC values, Salmonella choleraesius
[3] = test system: Cl. perfringens; assay: microbe, parasite or virus in culture; format: cell-based; details: Clostridium perfringens, 24 h, read-out: MIC values, Clostrisium perfringens
[4] = test system: E. coli K88+; format: cell-based, Escherichia coli K88+; details: individually

## C=CCc1ccc(O)c(OC)c1 [Eugenol, eugenol]
[1]
  MIC: 2500 µM (≈ 411 µg/mL)
[2]
  MIC: 2500 µM (≈ 411 µg/mL)
[3]
  MIC: 4000 µM (≈ 657 µg/mL)
[4]; dosage 0.25 mmol/L
  Lag phase (λ): 1.77
[4]; dosage 0.5 mmol/L
  Lag phase (λ): 1.91

## Cc1ccc(C(C)C)c(O)c1 [Thymol, thymol]
[1]
  MIC: 1500 µM (≈ 225 µg/mL)
[2]
  MIC: 1000 µM (≈ 150 µg/mL)
[3]
  MIC: 1000 µM (≈ 150 µg/mL)
[4]; dosage 0.25 mmol/L
  Lag phase (λ): 1.66
[4]; dosage 0.5 mmol/L
  Lag phase (λ): 1.65
